Test results from patent USRE37781E1, “Substituted cyclic carbonyls and derivatives thereof useful as retroviral protease inhibitors” (DuPont Pharmaceuticals Company, priority 1991, dated 2002).
In brackets after ≈: the same amount, converted by molar mass. Like-named read-outs stand apart in the source and are kept apart here.

Experiments:
HIV-1 (RF) in MT-2 cells = assay: microbe, parasite or virus in culture; assay type: cell-based
Procedure: DNA Plasmids and in vitro RNA transcripts:
Plasmid pDAB 72 containing both gag and pol sequences of BH10 (bp 113-1816) cloned into PTZ 19R was prepared according to Erickson-Viitanen et al. AIDS Research and Human Retroviruses 1989, 5, 577. The plasmid was linearized with Bam HI prior to the generation of in vitro RNA transcripts using the Riboprobe Gemini system II kit (Promega) with T7 RNA polymerase. Synthesized RNA was purified by treatment with RNase free DNAse (Promega), phenol-chloroform extraction, and ethanol precipitation. RNA transcripts were dissolved in water, and stored at −70° C. The concentration of RNA was determined from the A260.
Biotinylated capture probes were purified by HPLC after synthesis on an Applied Biosystems (Foster City, Calif.) DNA synthesizer by addition of biotin to the 5′ terminal end of the oligonucleotide, using the biotin-phosphoramidite reagent of Cocuzza, Tet. Lett. 1989, 30, 6287. The gag biotinylated capture probe (5-biotin-[…] 3′) was complementary to nucleotides 889-912 of HXB2 and the pol biotinylated capture probe (5′-biotin-[…] 3′) was complementary to nucleotides 2374-2395 of HXB2. Alkaline phosphatase conjugated oligonucleotides used as reporter probes were prepared by Syngene (San Diego, Calif.). The pol reporter probe (5′ […] 3′) was complementary to nucleotides 2403-2425 of HXB2. The gag reporter probe (5′ […] 3′) was complementary to nucleotides 950-973 of HXB2. All nucleotide positions are those of the GenBank Genetic Sequence Data Bank as accessed through the Genetics Computer Group Sequence Analysis Software Package (Devereau Nucleic Acids Research 1984, 12, 387). The reporter probes were prepared as 0.5μM stocks in 2× SSC (0.3M NaCl, 0.03M sodium citrate), 0.05M Tris pH 8.8, 1 mg/mL BSA. The biotinylated capture probes were prepared as 10 μM stocks in water.
Streptavidin coated plates:
Nunc-immunomodule microtiter plate strips were coated by addition of 200 μL of streptavidin (30 ug/mL, Scripps, La Jolla, Calif.) in freshly prepared 10 mM sodium carbonate (pH 9.6). Plates were incubated overnight at 4° C. Streptavidin solution was aspirated from the wells and a blocking buffer composed of phosphate buffered saline (PBS), 20 mg/mL bovine serum albumin (crystalline, nuclease and protease free, Calbiochem) and 100 mg/mL lactose (Sigma) was added to the plates for 3 hrs at room temperature. Blocking buffer was removed from the wells, which were allowed to dry overnight at room temperature and subsequently stored at 4° C. in zip lock bags with desiccant. For the majority of the compound evaluation experiments, streptavidin coated plates were obtained from Du Pont Biotechnology Systems (Boston, Mass.).
MT-2, CEM, and H9 cells were maintained in RPMI 1640 supplemented with 5% fetal calf serum (FCS), 2 mM L-glutamine and 50 μg/mL gentamycin, all from Gibco. Laboratory strains of HIV-1 (RF, MN and IIIB) were propagated in H9 cells in the same medium. Virus stocks were prepared approximately 1 month after acute infection of H9 cells by clarification of the tissue culture medium and storage of aliquots at −70° C. […] Each aliquot of virus stock used for infection was thawed only once. In some cases, infected H9 cells were shifted to Dulbecco's modified Eagle's medium 3-10 days before collection of virus in order to generate virus stocks in medium with low biotin content. Clinical isolates of HIV that had been passaged once in MT-2 cells were used to infect fresh MT-2 cells in RPMI medium. Three days after infection, cells were pelleted, resuspended and culture continued in Dulbecco's modified Eagle's medium as above. Virus stocks of clinical isolates were prepaid 10-15 days after infection when cytopathic effects were apparent in the culture.

[1] = target: single-chain tethered dimer of HIV protease (Human immunodeficiency virus 1, UniProt P04585); assay: biochemical; assay type: biochemical; set-up: fused on or other part: A second copy of the same protease unit is joined to the first by a short peptide tether, giving one polypeptide
[2] = Human immunodeficiency virus 1, MT2, 48 h, Table 2d, HIV RNA assay, read-out: IC90
[3] = read-out: HPLC K1, Table 2d, HIV protease inhibition, HPLC method
[4] = Human immunodeficiency virus 1, MT2, 48 h, Table 2d, class symbols, read-out: IC90
[5] = read-out: HPLC K1, Table 2d, class symbols
[6] = Table 2d, HIV protease inhibition, HPLC method, read-out: HPLC K1

N#Cc1cccc(CN2C(=S)N(Cc3ccc(CO)cc3)C(Cc3ccccc3)C(O)C(O)C2Cc2ccccc2)c1 (centres unmarked) [Example 27H]
IC90 (HIV-1 (RF) in MT-2 cells; Table 2q): +++ (+++=<10 μg/mL) | Ki ([1]; Table 2q, read-out: HPLC Ki): < 10 nM

O=C1N(Cc2cccc(-c3cn[nH]c3)c2)C(Cc2ccccc2)C(O)C(O)C(Cc2ccccc2)N1Cc1cccc(-c2cn[nH]c2)c1 (centres unmarked) [Example 15BN]
IC90 (HIV-1 (RF) in MT-2 cells; [2]): < 10 µg/mL | Ki [1, 3]: < 10 nM

O=C1N(Cc2cccc(Cn3ccnc3)c2)C(Cc2ccccc2)C(O)C(O)C(Cc2ccccc2)N1Cc1cccc(Cn2ccnc2)c1 (centres unmarked) [Example 15XG]
IC90 (HIV-1 (RF) in MT-2 cells; [2]): < 10 µg/mL | Ki [1, 3]: < 10 nM

O=C(NCCCCCN1C(=O)N(CCCCCNC(=O)c2cnccn2)C(Cc2ccccc2)C(O)C(O)C1Cc1ccccc1)c1cnccn1 (centres unmarked) [15FF]
IC90 (HIV-1 (RF) in MT-2 cells; HIV RNA assay, HIV-1 infected MT-2 cells, Table 2d): ++/+ (The ++/+ is used in the cases where an IC90 was determined to be >50 μg/mL) | Ki ([1]; HIV protease inhibition, HPLC method, Table 2d, read-out: HPLC K1): > 1000 nM

CCC(=O)c1cccc(CN2C(=O)N(Cc3cccc(C(=O)CC)c3)C(Cc3ccccc3)C(O)C(O)C2Cc2ccccc2)c1 (centres unmarked) [Example 15XN]
IC90 (HIV-1 (RF) in MT-2 cells; [2]): < 10 µg/mL | Ki [1, 3]: < 10 nM

OCc1cccc(CN2C(=S)N(Cc3cccc(CO)c3)C(Cc3ccccc3)C(O)C(O)C2Cc2ccccc2)c1 (centres unmarked) [Example 27D]
IC90 (HIV-1 (RF) in MT-2 cells; Table 2q): +++ (+++=<10 μg/mL) | Ki ([1]; Table 2q, read-out: HPLC Ki): < 10 nM

O=C1NC(Cc2ccccc2)C(O)C(O)C(Cc2ccccc2)N1CCCCCO (centres unmarked) [Example 15VG]
IC90 (HIV-1 (RF) in MT-2 cells; [4]): < 10 µg/mL | Ki [1, 5]: < 10 nM

CNc1n[nH]c2ccc(CN3C(=O)N(Cc4ccc5[nH]nc(NC)c5c4)C(Cc4ccccc4)C(O)C(O)C3Cc3ccccc3)cc12 (centres unmarked) [15DH]
IC90 (HIV-1 (RF) in MT-2 cells; Table 2d, HIV RNA assay): +++ (+++=<10 μg/mL) | Ki [1, 6]: < 10 nM

O=Cc1cc(CN2C(=O)N(Cc3ccc(O)cc3)C(Cc3ccccc3)C(O)C(O)C2Cc2ccccc2)ccc1O (centres unmarked) [Example 11E]
IC90 (HIV-1 (RF) in MT-2 cells; [4]): < 10 µg/mL | Ki [1, 5]: < 10 nM

CCNCc1ccc(C(=O)OCc2ccc(CN3C(=O)N(Cc4ccc(COC(=O)c5ccc(CNCC)cc5)cc4)[C@H](Cc4ccccc4)[C@H](O)[C@@H](O)[C@H]3Cc3ccccc3)cc2)cc1.Cl [29V]
IC90 (HIV-1 (RF) in MT-2 cells; Table 2s): +++ (+++=<10 μg/mL) | Ki ([1]; Table 2s, read-out: Ki (HPLC)): > 1000 nM

Nc1cccc(CN2C(=O)N(Cc3ccc(CO)cc3)C(Cc3ccccc3)C(O)C(O)C2Cc2ccccc2)c1 (centres unmarked) [15A]
IC90 (HIV-1 (RF) in MT-2 cells; [4]): < 10 µg/mL | Ki [1, 5]: < 10 nM

O=C1N(CCCCCNC(=S)Nc2ccccc2)C(Cc2ccccc2)C(O)C(O)C(Cc2ccccc2)N1CCCCCNC(=S)Nc1ccccc1 (centres unmarked) [15EW]
IC90 (HIV-1 (RF) in MT-2 cells; Table 2d, HIV RNA assay): ++/+ (The ++/+ is used in the cases where an IC90 was determined to be >50 μg/mL) | Ki [1, 6]: 10 to 1000 nM

CNc1cccc(CN2[C@H](Cc3ccccc3)[C@H](O)[C@@H](O)[C@@H](Cc3ccccc3)N(Cc3cccc(NC)c3)P2(=O)Oc2ccccc2)c1 (some centres unmarked) [28L]
IC90 (HIV-1 (RF) in MT-2 cells; Table 2r): ++ (++=10 to 100 μg/mL) | Ki ([1]; Table 2r, read-out: Ki HPLC): 10 to 1000 nM

O=C1N(Cc2cccc(O)c2)C(Cc2ccccc2)C(O)C(O)C(Cc2ccccc2)N1Cc1ccc2[nH]nnc2c1 (centres unmarked) [15DR]
IC90 (HIV-1 (RF) in MT-2 cells; Table 2d, HIV RNA assay): +++ (+++=<10 μg/mL) | Ki [1, 6]: < 10 nM

O=C1N(Cc2cccc(C#CCO)c2)C(Cc2ccccc2)C(O)C(O)C(Cc2ccccc2)N1Cc1cccc(C#CCO)c1 (centres unmarked) [Example 15XL]
IC90 (HIV-1 (RF) in MT-2 cells; [2]): < 10 µg/mL | Ki [1, 3]: < 10 nM

O=C1N(Cc2cccc(-c3cc[nH]n3)c2)C(Cc2ccccc2)C(O)C(O)C(Cc2ccccc2)N1Cc1cccc([N+](=O)[O-])c1 (centres unmarked) [Example 15CD]
IC90 (HIV-1 (RF) in MT-2 cells; [2]): < 10 µg/mL | Ki [1, 3]: < 10 nM

O=C1N(Cc2cccc(CCO)c2)C(Cc2ccccc2)C(O)C(O)C(Cc2ccccc2)N1Cc1cccc(CCO)c1 (centres unmarked) [15DX]
IC90 (HIV-1 (RF) in MT-2 cells; Table 2d, HIV RNA assay): +++ (+++=<10 μg/mL) | Ki [1, 6]: < 10 nM

Cl.O=C(OCc1ccc(CN2C(=O)N(Cc3ccc(COC(=O)c4cccc(CN5CCOCC5)c4)cc3)[C@H](Cc3ccccc3)[C@H](O)[C@@H](O)[C@H]2Cc2ccccc2)cc1)c1cccc(CN2CCOCC2)c1 [29S]
IC90 (HIV-1 (RF) in MT-2 cells; Table 2s): +++ (+++=<10 μg/mL) | Ki ([1]; Table 2s, read-out: Ki (HPLC)): > 1000 nM

CC(=O)CCCCN1C(=O)N(CCCCC(C)=O)C(Cc2ccccc2)C(O)C(O)C1Cc1ccccc1 (centres unmarked) [Example 15WB]
IC90 (HIV-1 (RF) in MT-2 cells; [4]): 10 to 100 µg/mL (≈ 19.1 to 191 µM) | Ki [1, 5]: 10 to 1000 nM

CCC(O)CN1C(=O)NC(Cc2ccccc2)C(O)C(O)C1Cc1ccccc1 (centres unmarked) [Example 15VL]
IC90 (HIV-1 (RF) in MT-2 cells; [4]): > 50 µg/mL | Ki [1, 5]: > 1000 nM

CC(=O)c1cccc(CN2C(=O)N(Cc3cccc(C(=O)CCN(C)C)c3)C(Cc3ccccc3)C(O)C(O)C2Cc2ccccc2)c1 (centres unmarked) [15AD]
IC90 (HIV-1 (RF) in MT-2 cells; Table 2d, HIV RNA assay): +++ (+++=<10 μg/mL) | Ki [1, 6]: < 10 nM

CCNC(=O)c1cccc(CN2C(=O)N(Cc3cccc(CO)c3)C(Cc3ccccc3)C(O)C(O)C2Cc2ccccc2)c1 (centres unmarked) [15WK]
IC90 (HIV-1 (RF) in MT-2 cells; [4]): < 10 µg/mL | Ki [1, 5]: < 10 nM

O=C1N(Cc2ccccc2)[C@H](Cc2ccccc2)C[C@@H](O)[C@@H](Cc2ccccc2)N1Cc1ccccc1 [Example 7AN]
Mass Spec M + H (class symbols printed in this column) (HIV-1 (RF) in MT-2 cells; Table 1d, lower part): +++ (+++=<10 μg/mL) | Ki ([1]; read-out: HPLC Ki, Table 1d, lower part): < 10 nM

Nc1ccc(CC2C(O)C(O)C(Cc3ccc(N)cc3)N(CC3CC3)C(=O)N2CC2CC2)cc1 (centres unmarked) [Example 20F]
IC90 (HIV-1 (RF) in MT-2 cells; Human immunodeficiency virus 1, MT2, Table 2i, read-out: IC90): < 10 µg/mL | Ki ([1]; read-out: HPLC Ki, Table 2i): 10 to 1000 nM

N#Cc1cccc(CN2C(=S)N(Cc3cccc(C#N)c3)C(Cc3ccccc3)C(O)C(O)C2Cc2ccccc2)c1 (centres unmarked) [Example 27K]
IC90 (HIV-1 (RF) in MT-2 cells; Table 2q): +++ (+++=<10 μg/mL) | Ki ([1]; Table 2q, read-out: HPLC Ki): < 10 nM

O=C1NC(Cc2ccccc2)C(O)C(O)C(Cc2ccccc2)N1CCCCCCO (centres unmarked) [Example 12C]
IC90 (HIV-1 (RF) in MT-2 cells; [4]): < 10 µg/mL | Ki [1, 5]: < 10 nM

O=C1N(CC2CC2)C(Cc2ccccc2)C(O)C(O)C(Cc2ccccc2)N1c1ccccn1 (centres unmarked) [Example 14D]
IC90 (HIV-1 (RF) in MT-2 cells; [4]): < 10 µg/mL | Ki [1, 5]: 10 to 1000 nM

CCC(=NO)c1cccc(CN2C(=O)N(Cc3cccc(C(CC)=NO)c3)C(Cc3ccccc3)C(O)C(O)C2Cc2ccccc2)c1 (centres unmarked) [Example 15XP]
IC90 (HIV-1 (RF) in MT-2 cells; [2]): < 10 µg/mL | Ki [1, 3]: < 10 nM

CNC(=O)c1cccc(CN2C(=O)N(Cc3cccc(C(=O)NC)c3)C(Cc3ccccc3)C(O)C(O)C2Cc2ccccc2)c1 (centres unmarked) [11H]
IC90 (HIV-1 (RF) in MT-2 cells; [4]): < 10 µg/mL | Ki [1, 5]: < 10 nM

CC(=O)Oc1cccc(CN2C(=O)N(Cc3cccc(OC(C)=O)c3)C(Cc3ccccc3)C(O)C(O)C2Cc2ccccc2)c1 (centres unmarked) [10F]
IC90 (HIV-1 (RF) in MT-2 cells; [4]): < 10 µg/mL | Ki [1, 5]: 10 to 1000 nM

C[Si](C)(C)CCOCn1ccnc1-c1cccc(CN2C(=O)N(Cc3cccc(-c4ncc[nH]4)c3)C(Cc3ccccc3)C(O)C(O)C2Cc2ccccc2)c1 (centres unmarked) [Example 15YK]
IC90 (HIV-1 (RF) in MT-2 cells; [2]): < 10 µg/mL | Ki [1, 3]: 10 to 1000 nM
